Read-outs that look alike come from different tables or passages of the source.
Legend:
[1] = molecular target: IMP-1 (Serratia marcescens, UniProt P52699); assay: biochemical; format: biochemical; conditions: fluorescence assay, CCF2-FA substrate, 2 pM enzyme, 2 hours at 25° C.; read-out: IMP-1 IC50
Summary of the method: (§1)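 Enzyme activity was measured by fluorescence using CCF2-FA, a cephalosporin-linked 7-hydroxycoumarin/fluorescein substrate, with inhibitor, metallo-β-lactamase and substrate incubated together for 2 hours at 25° C. IC50 came from a 4-parameter fit of inhibition versus log inhibitor concentration.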

[2] = molecular target: NDM-1 (Klebsiella pneumoniae, UniProt C7C422); assay: biochemical; format: biochemical; conditions: fluorescence assay, CCF2-FA substrate, 1 pM enzyme, 2 hours at 25° C.; read-out: NDM-1 IC50
Summary of the method: as §1

[3] = molecular target: VIM-1 (Pseudomonas aeruginosa (strain ATCC 15692 / DSM 22644 / CIP 104116 / JCM 14847 / LMG 12228 / 1C / PRS 101 / PAO1), UniProt A0A0F7KYQ8); assay: biochemical; conditions: CCF2-FA substrate, 30 pM enzyme, 2 hours at 25° C.
Summary of the method: as §1

[4] = tested on: Escherichia coli expressing NDM-1 (CLB30005, CLB30016); format: cell-based; conditions: with imipenem 1 μg/ml; for Escherichia coli expressing NDM-1 (CLB30016) MITC95: 95% inhibition of bacterial growth; for Escherichia coli MITC95: NDM-1 strain, 95% inhibition of growth
Summary of the method: (§2)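 Growth by absorbance after 22–24 h at 35°C defined the read-out, with imipenem fixed at 1 μg/ml alongside compound. Inocula came from overnight blood-agar colonies at 35°C, resuspended in saline and diluted 1:100 in 1.1×CAMHB.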

[5] = tested on: Klebsiella pneumoniae expressing VIM-1 (IHMA599644); format: cell-based; conditions: for Klebsiella pneumoniae expressing VIM-1 (IHMA599644) MITC95: with imipenem 1 μg/ml, 95% inhibition of bacterial growth; for Klebsiella pneumoniae MITC95: VIM-1 strain IHMA599644, with imipenem 1 μg/ml, 95% inhibition of growth
Summary of the method: as §2

[6] = tested on: Serratia marcescens expressing IMP-1 (CL5741); format: cell-based; conditions: for Serratia marcescens expressing IMP-1 (CL5741) MITC95: with imipenem 1 μg/ml, 95% inhibition of bacterial growth; for Serratia marcescens MITC95: IMP-1 strain CL5741, with imipenem 1 μg/ml, 95% inhibition of growth
Summary of the method: as §2

[7] = tested on: Pseudomonas aeruginosa efflux+ (MB9798), IMP-1; format: cell-based; set-up: Concentration of metallo-β-lactamase inhibitor which restores susceptibility of efflux + (MB9798) strain to imipenem: unit not given here; conditions: C, D serine β-lactamase inhibitor closely related to relebactam; for P. aeruginosa expressing IMP-1, efflux + (MB9798) MITC95: concentration restoring susceptibility to imipenem at 2 μg/mL in the presence of a class A; for Concentration of metallo-β-lactamase inhibitor which restores susceptibility of efflux + (MB9798) strain to imipenem: imipenem at 2 μg/mL, in the presence of a class A
Summary of the method: (§3)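 Steps: add fixed imipenem and/or ceftazidime (usually CLSI breakpoint) and fixed AmpC-directed class A/C inhibitor to microbroth MIC wells; titrate MBL inhibitor; record concentration regaining susceptibility for each PAO1-derived strain; divide efflux+ by efflux− value.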

[8] = tested on: Pseudomonas aeruginosa efflux− (MB9799), IMP-1; format: cell-based; conditions: C, D serine β-lactamase inhibitor closely related to relebactam; for P. aeruginosa expressing IMP-1, efflux − (MB9799) MITC95: concentration restoring susceptibility to imipenem at 2 μg/mL in the presence of a class A; for Concentration of metallo-β-lactamase inhibitor which restores susceptibility of efflux − (MB9799) strain to imipenem: imipenem at 2 μg/mL, in the presence of a class A
Summary of the method: as §3

[9] = tested on: Pseudomonas aeruginosa MB9798 vs MB9799
Summary of the method: as §3

[10] = fluorescence assay, read-out: VIM-1 IC50
[11] = ratio MITC95 PA_9798/MITC95 PA_9799
[12] = fold difference between efflux+ (MB9798) and efflux− (MB9799) strains, imipenem at 2 μg/mL

IMP-1, sequence (P52699 whole entry, looked up, species assumed): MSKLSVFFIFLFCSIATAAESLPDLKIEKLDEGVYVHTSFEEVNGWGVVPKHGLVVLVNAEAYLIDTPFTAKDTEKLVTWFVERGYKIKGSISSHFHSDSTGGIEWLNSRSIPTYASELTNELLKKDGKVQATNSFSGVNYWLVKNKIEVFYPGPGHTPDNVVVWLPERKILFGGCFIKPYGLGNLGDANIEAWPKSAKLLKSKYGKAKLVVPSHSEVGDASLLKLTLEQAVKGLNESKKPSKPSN
NDM-1, sequence (C7C422 whole entry, looked up, species assumed): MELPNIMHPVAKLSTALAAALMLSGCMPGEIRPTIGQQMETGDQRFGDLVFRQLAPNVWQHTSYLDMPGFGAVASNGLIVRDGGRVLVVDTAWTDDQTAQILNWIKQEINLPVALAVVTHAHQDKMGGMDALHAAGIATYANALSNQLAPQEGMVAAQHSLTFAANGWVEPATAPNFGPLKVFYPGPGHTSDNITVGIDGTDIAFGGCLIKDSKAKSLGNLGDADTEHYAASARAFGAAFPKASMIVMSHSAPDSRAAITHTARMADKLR

SMILES | IC50 [1] [nM] | IC50 [2] [nM] | IC50 [3, 10] [nM] | Escherichia coli expressing NDM-1 (CLB30016) MITC95 [4] [µM] | Klebsiella pneumoniae expressing VIM-1 (IHMA599644) MITC95 [5] [µM] | Serratia marcescens expressing IMP-1 (CL5741) MITC95 [6] [µM] | P. aeruginosa expressing IMP-1, efflux + (MB9798) MITC95 [7] [µM] | P. aeruginosa expressing IMP-1, efflux − (MB9799) MITC95 [8] [µM] | Efflux ratio [9, 11] | Escherichia coli MITC95 [4] [µM] | Klebsiella pneumoniae MITC95 [5] [µM] | Serratia marcescens MITC95 [6] [µM] | Concentration of metallo-β-lactamase inhibitor which restores susceptibility of efflux + (MB9798) strain to imipenem [7] | Concentration of metallo-β-lactamase inhibitor which restores susceptibility of efflux − (MB9799) strain to imipenem [8] | Efflux ratio [9, 12] | IC50 ([3]; VIM-1 IC50, fluorescence assay) [nM]
Nc1nc2c(-c3ccc(S(=O)(=O)NCc4ccccn4)c(S(N)(=O)=O)c3-c3nnn[nH]3)cccc2s1.O=C(O)C(F)(F)F [Example 106, 2-((4-(2-aminobenzo[d]thiazol-4-yl)-2-sulfamoyl-3-(1H-tetrazol-5-yl)phenylsulfonamido)methyl)pyridin-1-ium 2,2,2-trifluoroacetate] | 0.379 | 0.0733 | 0.236 | 6.25 | 12.5 | 3.125 | 12.5 | 3.125 | 4.00 | – | – | – | – | – | – | –
NC[C@H](O)CNS(=O)(=O)c1ccc(-c2ccc3nccn3c2)c(-c2nn[nH]n2)c1S(N)(=O)=O [Example 418] | 0.834 | 0.152 | 0.113 | – | – | – | – | – | – | 0.3906 | 1.563 | 0.7813 | 1.563 | 0.7813 | 2.00 | –
NCCNc1cc(-c2ccc(S(=O)(=O)NCCN)c(S(N)(=O)=O)c2-c2nn[nH]n2)ccn1 [Example 456, N1-(2-Aminoethyl)-4-(2-((2-aminoethyl)amino)pyridin-4-yl)-3-(2H-tetrazol-5-yl)benzene-1,2-disulfonamide] | 3.77 | 1.56 | 0.545 | – | – | – | – | – | – | 0.7813 | 1.563 | 0.7813 | 1.563 | 0.7813 | 2.00 | –
Nc1ccc(-c2ccc(S(=O)(=O)N3CCNCC3)c(S(N)(=O)=O)c2-c2nn[nH]n2)cn1 [Example 485, 3-(6-aminopyridin-3-yl)-6-(piperazin-1-ylsulfonyl)-2-(2H-tetrazol-5-yl)benzenesulfonamide] | 3.58 | 2.22 | 2.3 | – | – | – | – | – | – | 0.1953 | 1.563 | 0.7813 | 6.25 | 0.7813 | 8.00 | –
NC[C@H](CO)NS(=O)(=O)c1ccc(-c2ccnc(N)c2)c(-c2nn[nH]n2)c1S(N)(=O)=O [Example 362, (R)—N1-(1-amino-3-hydroxypropan-2-yl)-4-(2-aminopyridin-4-yl)-3-(2H-tetrazol-5-yl)benzene-1,2-disulfonamide] | 9.51 | 3.08 | – | – | – | – | 3.125 | 1.563 | 2.00 | 1.563 | 3.125 | 1.563 | – | – | – | 1.88
NCC1CCCCN1S(=O)(=O)c1ccc(-c2cccc3sc(N)nc23)c(-c2nnn[nH]2)c1S(N)(=O)=O.O=C(O)C(F)(F)F (stereo not drawn) [Example 110, (1-((4-(2-aminobenzo[d]thiazol-4-yl)-2-sulfamoyl-3-(1H-tetrazol-5-yl)phenyl)sulfonyl)piperidin-2-yl)methanaminium 2,2,2-trifluoroacetate] | 0.346 | 0.0815 | 0.309 | 1.563 | 3.125 | 3.125 | 1.563 | 1.563 | 1.00 | – | – | – | – | – | – | –
Nc1nc2c(-c3ccc(S(=O)(=O)NC[C@@H]4CNCCN4)c(S(N)(=O)=O)c3-c3nn[nH]n3)cccc2[nH]1 [Example 310, (S)-4-(2-amino-1H-benzo[d]imidazol-4-yl)-N1-(piperazin-2-ylmethyl)-3-(2H-tetrazol-5-yl)benzene-1,2-disulfonamide] | 0.667 | 0.0521 | 0.169 | – | – | – | 0.7813 | 0.7813 | 1.00 | 0.7813 | 1.563 | 0.7813 | – | – | – | –
NCCNS(=O)(=O)c1ccc(-c2ccc3ncn(CCN)c3c2)c(-c2nn[nH]n2)c1S(N)(=O)=O [Example 348, N^1-(2-aminoethyl)-4-(1-(2-aminoethyl)-1H-benzo[d]imidazol-6-yl)-3-(2H-tetrazol-5-yl)benzene-1,2-disulfonamide] | 3.33 | 1.47 | 0.536 | – | – | – | 3.125 | 0.7813 | 4.00 | 1.563 | 1.563 | 1.563 | – | – | – | –
N[C@H](CO)CNS(=O)(=O)c1ccc(-c2cccc3[nH]cnc23)c(-c2nn[nH]n2)c1S(N)(=O)=O [Example 296, (S)—N^1-(2-amino-3-hydroxypropyl)-4-(1H-benzo[d]imidazol-4-yl)-3-(2H-tetrazol-5-yl)benzene-1,2-disulfonamide] | 0.198 | 0.0409 | 0.184 | – | – | – | 0.7813 | 0.7813 | 1.00 | 1.563 | 3.125 | 1.563 | – | – | – | –
NCCNS(=O)(=O)c1ccc(C2CCC[C@H](N)C2)c(-c2nn[nH]n2)c1S(N)(=O)=O (stereo partly drawn) [Example 342, 4-((3S)-3-aminocyclohexyl)-N1-(2-aminoethyl)-3-(2H-tetrazol-5-yl)benzene-1,2-disulfonamide] | 88.7 | 32.7 | – | – | – | – | 25 | 6.25 | 4.00 | 1.563 | 1.563 | 3.125 | – | – | – | 5.31
Cn1c(N)nc2c(-c3ccc(S(=O)(=O)NC[C@H](O)CN)c(S(N)(=O)=O)c3-c3nn[nH]n3)cccc21 [Example 302, (R)-4-(2-amino-1-methyl-1H-benzo[d]imidazol-4-yl)-N1-(3-amino-2-hydroxypropyl)-3-(2H-tetrazol-5-yl)benzene-1,2-disulfonamide] | 0.341 | 0.0449 | – | – | – | – | 0.7813 | 0.7813 | 1.00 | 0.7813 | 1.563 | 0.7813 | – | – | – | 0.141
C[C@H](CN)NS(=O)(=O)c1ccc(-c2cccc3c2nc(N)n3C)c(-c2nn[nH]n2)c1S(N)(=O)=O [Example 395] | 0.156 | 0.0315 | – | – | – | – | – | – | – | 0.3906 | 1.563 | 1.563 | 1.563 | 0.7813 | 2.00 | 0.108

Reference: US10221163B2 (priority 2015, dated 2019)
